One may read the melting point as the temperature, or range, at which the solid turns liquid.

In the case of `CCCCCCc1cc(C=O)c(O)cc1O`, the melting point fell in the range of 108 to 110 °C.

In turn, `COC(=O)C(Cc1ccc(OCCc2nc(-c3ccccc3)oc2C)cc1)C(=O)NC(N)=O` (stereo not drawn) showed a melting point of 74.6 to 75.6 °C.

`O=C(O)/C=C/c1cc(F)c2ncc(C(=O)NCc3ccc(Cl)cc3)c(O)c2c1` came in with a melting point of 296 to 298 °C.

The molecule `ClC(c1ccccc1)(c1ccccc1)c1ccc2ccccc2c1` had a melting point of 92 to 93 °C.

For `CCOC(=O)c1cc2c(C)c(F)ccc2[nH]1`, the melting point was 148 to 149 °C.

For the molecule `CC(C)(C)OC(=O)NCc1nc2c(C(F)(F)F)cccc2c(O)c1C(=O)Nc1nccs1`, the melting point amounted to 238 °C.

Consider `CS(=O)(=O)c1ccc(-c2c(OCC(=O)c3ccc(F)cc3)nn(CC(=O)c3ccc(F)cc3)c2-c2ccc(F)cc2)cc1`, for which the melting point lay in the range of 191 to 193 °C.

In turn, `CCOC(=O)C(=NOC)c1csc(NC(=O)CCl)n1` displayed a melting point of 81 to 82 °C.

The molecule `CCc1nc2c(N)nc3ccccc3c2n1CCCC#Cc1ccccc1` showed a melting point of 199 to 202 °C.

In the case of `Cc1cccc2c1NS(=O)(=O)N(C(C)C)C2=O`, the melting point worked out at 124 °C.

For `CCCc1c(OCCCOc2ccc(-c3nnn[nH]3)cc2Cl)ccc(C(C)=O)c1O`, the melting point was 214 to 216 °C.

For `CC(C)CCn1cc([N+](=O)[O-])cc1C(=O)O`, the melting point lay within 154 to 157 °C.

The molecule `CC(C)(C)C1=CC(=CC#N)C=C(C(C)(C)C)C1=O` showed a melting point of 110 to 111 °C.

With `COC[C@H]1CCCN1C(=O)c1cc(-c2ccccc2)c(=O)n2ccc3ccc(Cl)cc3c12`, the melting point is 137 to 140 °C.

In turn, `COCN(C(=O)CCl)c1c([N+](=O)[O-])cccc1[N+](=O)[O-]` came in with a melting point of 106 to 108 °C.

Molecule `COC(=O)C=CC(=O)c1ccc(Oc2ccccc2)cc1` displayed a melting point of 88 to 90 °C.

For `CCSc1cc(C)nc(SCC)c1NC(=O)CCCCCCCCSc1nc2c(C)c(Cl)cc(C(C)C)c2o1`, the melting point lay in the range of 93 to 94 °C.

As for `CCOC(=O)CCCN(C(=O)c1ccc(Cl)cc1)c1cccc2ccc(OC)cc12`, the melting point was 92 to 94 °C.

With `COc1cc(C(=O)NS(=O)(=O)c2ccccc2C)ccc1Cn1cc(CCC(=O)N(C)C)c2ccc(CCC(=O)N(C)C)cc21`, the melting point lay in the range of 105 to 109 °C.

Turning to `CC(C)c1n[nH]c2c(NCc3cccc(O)c3)ncnc12`, the melting point lay in the range of 220 to 221 °C.

In the case of `COC(=O)CCCCCCCCN1C(=O)C(c2ccccc2)N(c2ccccc2)C1=O` (stereo not drawn), the melting point was in the range of 69 to 72 °C.

`CN1CCC(N(C)c2nc(Nc3ccc(O)c(Cl)c3)nc(NC3CCCCCC3)n2)CC1` registered a melting point of 68 °C.

As for `O=C(O)CCCCCCCNS(=O)(=O)c1ccccc1`, the melting point is 82 to 84 °C.

Take `CS(=O)(=O)c1nc(Cl)c(Cc2ccccc2)c(N2CCCC2)n1`: the melting point lay within 136 to 138 °C.

Molecule `CCSC1CCC2C3CCC4=CC(=O)C=CC4(C)C3(F)C(O)CC12C` (stereo not drawn) gave a melting point of 196 to 197 °C.

For the molecule `CC1(C)CCC(C)(C)c2cc(CCc3ncccn3)c(C=O)cc21`, the melting point was in the range of 78 to 84.5 °C.

The molecule `c1ccc(-c2nc3cc4oc(-c5ccccc5)nc4cc3o2)cc1` had a melting point of 319 to 323 °C.

For the molecule `O=C1Nc2cc(C(F)(F)F)ccc2C1c1cc(Cl)ccc1O` (stereo not drawn), the melting point lay in the range of 266 to 268 °C.

As to `CCOC(=O)c1ccc(-c2ccsc2)nc1C(=O)OCC`, the melting point lay within 100 to 102 °C.

Take `COc1cc(C(=O)N2CCNC(C(=O)N(C)C)C2)cc(OC)c1OC` (stereo not drawn): the melting point was 167 to 168 °C.

Consider `CC(C)(C)OC(=O)Nc1ccc(C#Cc2nccs2)cc1[N+](=O)[O-]`, for which the melting point stood at 137 °C.

For the molecule `CCn1c(=O)ccc2cnc(Nc3ccc(F)cc3)nc21`, the melting point lay within 215 to 217 °C.

`O=C(Nc1cc(Cl)cc(Cl)c1)c1cc(Br)cc(Br)c1O`: the melting point was 181 to 182 °C.

For the molecule `CCSc1ccc([N+](=O)[O-])c(N)c1`, the melting point was in the range of 75 to 76 °C.

In the case of `COc1ccc(S(=O)(=O)N(CCCO)c2ccc(Cl)cc2Cc2c(F)cccc2F)cc1OC`, the melting point came to 138 °C.

`Cc1cc(NC(=O)C(CS)Cc2ccccc2)cc(C(=O)O)c1` (stereo not drawn) displayed a melting point of 177 to 178 °C.

Consider `CS(=O)(=O)CCNC(=O)c1cccc(-c2ccc3c(c2)C(Oc2ccc(Cl)cc2Cl)CC3)c1` (stereo not drawn), for which the melting point fell in the range of 140 to 143 °C.

On to `CN1CC(COC2c3ccccc3CCn3cc(I)nc32)C1` (stereo not drawn), for which the melting point is 100 °C.

`CN1Cc2c(-c3nnc(CCl)o3)ncn2-c2ccccc2C1=O` gave a melting point of 221 to 222 °C.

On to `Cc1ccc(-c2nnc(N3CCCCC3)nc2-c2ccc(C)cc2)cc1`, for which the melting point is 141 to 143 °C.

`N#Cc1ccc(-c2ccc(OCCCCC(=O)NO)cc2)cc1` gave a melting point of 142 to 143 °C.

Regarding `CC(Cc1c[nH]c2ccccc12)NC(=O)Oc1ccccc1` (stereo not drawn), the melting point is 89 to 92 °C.

Molecule `COC(=O)C1OC(c2ccccc2)OCC1(C)C` (stereo not drawn) registered a melting point of 86.5 to 88 °C.

On to `O=S1(=O)c2ccc(F)cc2Oc2cc(OCC(F)(F)F)ccc21`, for which the melting point lay within 160 to 161 °C.

Molecule `Clc1ccc2[nH]cc(C3=CCC4(CC3)OCCO4)c2c1` displayed a melting point of 178 to 181 °C.

The molecule `CC(=O)c1cn(-c2c(Cl)cc(C(F)(F)F)cc2Cl)nc1C#N` gave a melting point of 166 to 168 °C.

`CN1CCc2c(O)c(F)cc3c(=O)c(C(=O)O)cn1c23` yielded a melting point greater than 290 °C.

Regarding `Nc1ccc(S(F)(F)(F)(F)F)cc1[N+](=O)[O-]`, the melting point lay in the range of 132 to 135 °C.

On to `CCN(CC)C(=O)Nc1ccc(S(=O)(=O)N2C(=O)C(C)(c3cc(C(=O)NCc4cccnc4)ccc3Cl)c3cc(Cl)ccc32)c(OC)c1` (stereo not drawn), for which the melting point was 148 °C.

`O=C(O)CC1CCC(N2CCN(CCNc3ccncc3)CC2)CC1` (stereo not drawn) showed a melting point of 220 °C.

The molecule `CCC(C(C)=CC(CNC(=O)Cc1cccnc1)=NO)[N+](=O)[O-]` (stereo not drawn) registered a melting point of 140 to 141 °C.

Molecule `CCOc1ccccc1N1CCN(CCC2OCCc3cc(C(N)=O)ccc32)CC1` (stereo not drawn) gave a melting point of 208 to 210 °C.

Molecule `O=C1c2cc(O)ccc2N(Cc2ccccc2)C2=NCCN12` showed a melting point of 225 to 227 °C.

With `Cn1cc(-c2nnc(-c3ccncc3)o2)c2ccccc21`, the melting point lay in the range of 212 to 214 °C.

Molecule `CCCCc1ncc(CC(Cc2cccs2)C(=O)O)n1Cc1ccc(C(=O)O)cc1` (stereo not drawn) displayed a melting point of 175 °C.

`CNC(=O)C1CN(C(=O)/C=C/C2=C(C)CCCC2(C)C)CCN1C(N)=O` (stereo not drawn) registered a melting point of 100 to 112 °C.

On to `O=C1c2c(ccc3c2OCCO3)S(=O)(=O)N1CCCCBr`, for which the melting point is 135 to 136 °C.

`Cc1c(NC(=O)c2ccc(C#CC3(O)CCC3)cc2)ccc2cc(CNCC(C)(C)C)n(C)c12` came in with a melting point of 232 to 233 °C.

In turn, `NC(=O)c1n[nH]c2c(=O)[nH]c3cc(Cl)ccc3c(=O)c12` came in with a melting point of 224 to 225 °C.

For the molecule `CCOC(=O)C1=C(C)NC(CN2C(=O)c3ccccc3C2=O)=C(C(=O)OCC)C1c1ccc(F)cc1` (stereo not drawn), the melting point lay in the range of 144 to 145 °C.

The molecule `CN(C)S(=O)(=O)c1cc2c(c(Cl)c1Cl)OC(C(=O)OCOC(=O)C(C)(C)C)C2` (stereo not drawn) showed a melting point of 113 to 114 °C.

In the case of `COc1ccc(C(=O)O)c(C)c1C`, the melting point was 214 °C.

The molecule `CCc1cc2c(cc1N)N1CCCN=C1S2` registered a melting point of 210 °C.

Source of the values: a melting point compilation (Tetko et al.; mined from patent text by program, amines drawn as free bases though some values may be those of a salt).
